In ChEMBL document CHEMBL5052820, “Organic compounds” (2019):
Where a SMILES comes first, the peptide text is derived from it.

Test: Activation of mouse GPR15 stably expressed in CHO cells expressing Aequorin and Galpha16 measured by luminiscence assay
Format: cell-based

SMILES: CC(C)C[C@H](NC(=O)[C@H](CCC(N)=O)NC(=O)[C@@H]1CCCN1C(=O)[C@H](CCCCN)NC(=O)[C@@H](N)CCC(N)=O)C(=O)N[C@@H](Cc1c[nH]c2ccccc12)C(=O)N[C@H](C(=O)N[C@H](C(=O)N1CCC[C@H]1C(=O)NCC(=O)N[C@@H](C)C(=O)N[C@@H](CC(C)C)C(=O)N1CCC[C@H]1C(=O)N[C@@H](CCC(N)=O)C(=O)N[C@H](C(=O)O)C(C)C)C(C)C)C(C)C (H-QKPQLWVVPGALPQV-OH)
- EC50: 4.02 µM
